In ChEMBL document CHEMBL5352388 (Eur J Med Chem, 2022):
Activity calls are given as the source filed them. No cut-off for these calls is given here.

What was measured:
[1] = Intrinsic clearance in human liver measured upto 60 mins in presence of NADPH by LC/MS/MS analysis; assay type: ADME, tissue-based; details: read-out: CLH
[2] = Metabolic stability in human liver microsomes assessed as compound remaining measured upto 60 mins in presence of NADPH by LC/MS/MS analysis; assay type: ADME, Microsome; details: read-out: Stability
[3] = molecular target: CYP2C19 (Homo sapiens, UniProt P33261); assay: Inhibition of CYP2C19 (unknown origin) at 10 uM incubated for 20 mins in presence of NADPH by LC/MS/MS analysis relative to control; assay type: ADME
[4] = molecular target: CYP2D6 (Homo sapiens, UniProt P10635); assay: Inhibition of CYP2D6 (unknown origin) at 10 uM incubated for 20 mins in presence of NADPH by LC/MS/MS analysis relative to control; assay type: ADME
[5] = molecular target: CYP3A4 (Homo sapiens, UniProt P08684); assay: Inhibition of CYP3A4 (unknown origin) at 10 uM incubated for 20 mins in presence of NADPH by LC/MS/MS analysis relative to control; assay type: ADME
[6] = molecular target: Voltage-gated inwardly rectifying potassium channel KCNH2 (Homo sapiens, UniProt Q12809); assay: Inhibition of human ERG stably expressed in CHO cells by patch clamp assay; assay type: toxicity, cell-based
[7] = Cmax in Sprague-Dawley rat at 10 mg/kg,po by LC-MS/MS analysis; assay type: ADME, organism-based; set-up: dose 10 mg/kg, route po; details: in vivo
[8] = AUC (0-t) in Sprague-Dawley rat at 10 mg/kg,po by LC-MS/MS analysis; assay type: ADME, organism-based; set-up: dose 10 mg/kg, route po; details: in vivo
[9] = Oral bioavailability in Sprague-Dawley rat at 10 mg/kg by LC-MS/MS analysis; assay type: ADME, organism-based; details: in vivo
[10] = AUC (0-infinity) in Sprague-Dawley rat at 3 mg/kg,iv by LC-MS/MS analysis; assay type: ADME, organism-based; set-up: dose 3 mg/kg, route iv; details: in vivo
[11] = tested on: A549; assay: Inhibition of colony formation in human A549 cells at 2 uM; assay type: functional, cell-based
[12] = tested on: A549; assay: Antiproliferative activity against human A549 cells assessed as reduction of Edu positive cells at 2 uM incubated for 48 hrs by EdU incorporation based laser scanning microscopic analysis; assay type: functional, cell-based
[13] = molecular target: T1, Lysine-specific histone demethylase 1A (Homo sapiens, UniProt O60341); assay: Reversible inhibition of LSD-1 (unknown origin) by jump dilution assay
[14] = molecular target: T1, Lysine-specific histone demethylase 1A; assay: Inhibition of LSD1 in human A549 cells assessed as increase in H3K9me2 protein level at 1 to 4 uM incubated for 72 hrs by Western blotting assay; assay type: cell-based; details: dose 1-4 µM
[15] = molecular target: T1, Lysine-specific histone demethylase 1A; assay: Binding affinity to LSD1 in human A549 cells assessed as increase in thermal stability at 10 uM incubated for 1 hr by cellular thermal shift assay; assay type: cell-based
[16] = tested on: A549; assay: Induction of apoptosis in human A549 cells at 4 uM incubated for 48 hrs by Annexin V-FITC/PI staining based flow cytometry method; assay type: functional
[17] = tested on: A549; assay: Induction of apoptosis in human A549 cells assessed as upregulation of Bax at 1 to 4 uM incubated for 72 hrs by Western blotting assay; assay type: functional, cell-based; details: dose 1-4 µM
[18] = tested on: A549; assay: Induction of apoptosis in human A549 cells assessed as downregulation of BCL-2 at 1 to 4 uM incubated for 72 hrs by Western blotting assay; assay type: functional, cell-based; details: dose 1-4 µM
[19] = tested on: A549; assay: Antitumor activity against human A549 cells xenografted in BALB/c mouse assessed as reduction in tumor growth at 10 mg/kg,ip administrated for 15 days; assay type: functional, organism-based; details: time 15.0 day
[20] = tested on: A549; assay: Antitumor activity against human A549 cells xenografted in BALB/c mouse assessed as reduction in KI67 positive cells at 20 mg/kg,ip administrated for 15 days; assay type: functional, organism-based; details: time 15.0 day
[21] = tested on: A549; assay: Antitumor activity against human A549 cells xenografted in BALB/c mouse assessed as decrease in tumor cell density at 20 mg/kg,ip administrated for 15 days; assay type: functional, organism-based; details: time 15.0 day
[22] = tested on: A549; assay: Induction of apoptosis in human A549 cells assessed as downregulation of AKT phosphorylation incubated for 72 hrs by Western blotting assay; assay type: functional, cell-based
[23] = tested on: A549; assay: Induction of apoptosis in human A549 cells assessed as downregulation of mTOR phosphorylation incubated for 72 hrs by Western blotting assay; assay type: functional, cell-based
[24] = molecular target: T1, Lysine-specific histone demethylase 1A
Description: Inhibition of recombinant human LSD1 using fluorometric substrate by HRP based fluorimeter microplate reader assay

[25] = molecular target: T2, Amine oxidase [flavin-containing] A (Homo sapiens, UniProt P21397)
T2 sequence (P21397 whole entry): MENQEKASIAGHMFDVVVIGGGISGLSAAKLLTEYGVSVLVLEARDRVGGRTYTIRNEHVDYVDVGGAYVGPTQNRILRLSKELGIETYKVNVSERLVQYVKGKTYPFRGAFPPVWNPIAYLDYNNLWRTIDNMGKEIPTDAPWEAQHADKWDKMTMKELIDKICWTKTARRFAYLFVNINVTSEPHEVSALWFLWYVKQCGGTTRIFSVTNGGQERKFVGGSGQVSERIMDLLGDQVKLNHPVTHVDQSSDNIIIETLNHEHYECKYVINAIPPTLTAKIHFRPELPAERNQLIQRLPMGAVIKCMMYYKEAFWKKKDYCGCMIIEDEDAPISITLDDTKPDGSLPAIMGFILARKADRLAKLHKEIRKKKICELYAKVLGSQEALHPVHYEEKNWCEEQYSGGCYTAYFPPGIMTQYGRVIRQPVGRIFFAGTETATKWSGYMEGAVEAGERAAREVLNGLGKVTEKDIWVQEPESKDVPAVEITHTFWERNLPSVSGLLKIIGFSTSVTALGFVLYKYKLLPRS
Description: Inhibition of recombinant MAO-A (unknown origin) incubated for 60 mins by luminescence based flow cytometry

[26] = tested on: NCI-H460; assay: cells; details: Homo sapiens, NCI-H460, 72 h
Description: Antiproliferative activity against human NCI-H460 cells assessed as inhibition of cell growth incubated for 72 hrs by CCK-8 assay

[27] = tested on: MCF7; assay: cells; details: Homo sapiens, MCF7, 72 h
Description: Antiproliferative activity against human MCF7 cells assessed as inhibition of cell growth incubated for 72 hrs by CCK-8 assay

[28] = in vitro; details: human, THLE-2 cells
Description: Antiproliferative activity against human THLE-2 cells assessed as inhibition of cell growth incubated for 72 hrs by CCK-8 assay

Sequence of CYP2D6 (P10635 whole entry): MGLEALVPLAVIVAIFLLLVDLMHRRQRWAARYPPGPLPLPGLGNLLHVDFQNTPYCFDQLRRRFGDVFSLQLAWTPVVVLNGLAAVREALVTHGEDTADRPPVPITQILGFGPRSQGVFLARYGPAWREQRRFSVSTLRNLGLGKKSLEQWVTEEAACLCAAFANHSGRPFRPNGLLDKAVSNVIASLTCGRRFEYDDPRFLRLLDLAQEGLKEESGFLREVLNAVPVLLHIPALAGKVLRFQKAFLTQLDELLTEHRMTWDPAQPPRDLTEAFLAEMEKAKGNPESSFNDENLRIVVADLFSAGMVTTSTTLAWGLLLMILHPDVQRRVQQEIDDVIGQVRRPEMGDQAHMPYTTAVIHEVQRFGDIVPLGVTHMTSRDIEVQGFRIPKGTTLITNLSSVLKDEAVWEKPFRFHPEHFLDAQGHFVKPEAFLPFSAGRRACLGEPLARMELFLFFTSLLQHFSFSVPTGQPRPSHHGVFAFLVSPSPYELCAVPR
Sequence of CYP3A4 (P08684 whole entry): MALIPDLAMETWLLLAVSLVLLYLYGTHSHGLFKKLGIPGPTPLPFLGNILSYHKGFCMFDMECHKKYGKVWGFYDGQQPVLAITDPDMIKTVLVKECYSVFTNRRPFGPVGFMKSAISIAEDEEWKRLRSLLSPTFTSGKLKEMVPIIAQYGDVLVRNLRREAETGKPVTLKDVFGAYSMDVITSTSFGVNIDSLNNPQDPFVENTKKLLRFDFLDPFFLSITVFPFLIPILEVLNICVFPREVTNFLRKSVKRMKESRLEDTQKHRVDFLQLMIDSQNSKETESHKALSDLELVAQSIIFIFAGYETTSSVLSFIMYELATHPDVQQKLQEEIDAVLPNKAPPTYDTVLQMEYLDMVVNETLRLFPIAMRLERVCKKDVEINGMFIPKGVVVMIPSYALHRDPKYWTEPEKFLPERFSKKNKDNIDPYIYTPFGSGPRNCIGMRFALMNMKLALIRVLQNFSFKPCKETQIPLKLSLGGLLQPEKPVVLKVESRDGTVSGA
Sequence of CYP2C19 (P33261 whole entry): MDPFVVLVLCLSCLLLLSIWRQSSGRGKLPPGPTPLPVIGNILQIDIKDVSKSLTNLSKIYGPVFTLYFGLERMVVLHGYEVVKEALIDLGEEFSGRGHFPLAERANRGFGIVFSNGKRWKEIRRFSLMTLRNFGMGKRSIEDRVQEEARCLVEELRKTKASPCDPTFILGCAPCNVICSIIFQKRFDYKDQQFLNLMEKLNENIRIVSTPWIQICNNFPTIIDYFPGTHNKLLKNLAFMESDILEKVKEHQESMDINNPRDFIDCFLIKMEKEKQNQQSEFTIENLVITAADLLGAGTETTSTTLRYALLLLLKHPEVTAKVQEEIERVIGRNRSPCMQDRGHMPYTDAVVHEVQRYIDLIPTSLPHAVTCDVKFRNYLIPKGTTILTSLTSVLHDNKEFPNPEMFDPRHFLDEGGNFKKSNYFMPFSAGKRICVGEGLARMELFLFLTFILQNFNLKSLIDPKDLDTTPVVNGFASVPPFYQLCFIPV
Sequence of Voltage-gated inwardly rectifying potassium channel KCNH2 (Q12809 whole entry): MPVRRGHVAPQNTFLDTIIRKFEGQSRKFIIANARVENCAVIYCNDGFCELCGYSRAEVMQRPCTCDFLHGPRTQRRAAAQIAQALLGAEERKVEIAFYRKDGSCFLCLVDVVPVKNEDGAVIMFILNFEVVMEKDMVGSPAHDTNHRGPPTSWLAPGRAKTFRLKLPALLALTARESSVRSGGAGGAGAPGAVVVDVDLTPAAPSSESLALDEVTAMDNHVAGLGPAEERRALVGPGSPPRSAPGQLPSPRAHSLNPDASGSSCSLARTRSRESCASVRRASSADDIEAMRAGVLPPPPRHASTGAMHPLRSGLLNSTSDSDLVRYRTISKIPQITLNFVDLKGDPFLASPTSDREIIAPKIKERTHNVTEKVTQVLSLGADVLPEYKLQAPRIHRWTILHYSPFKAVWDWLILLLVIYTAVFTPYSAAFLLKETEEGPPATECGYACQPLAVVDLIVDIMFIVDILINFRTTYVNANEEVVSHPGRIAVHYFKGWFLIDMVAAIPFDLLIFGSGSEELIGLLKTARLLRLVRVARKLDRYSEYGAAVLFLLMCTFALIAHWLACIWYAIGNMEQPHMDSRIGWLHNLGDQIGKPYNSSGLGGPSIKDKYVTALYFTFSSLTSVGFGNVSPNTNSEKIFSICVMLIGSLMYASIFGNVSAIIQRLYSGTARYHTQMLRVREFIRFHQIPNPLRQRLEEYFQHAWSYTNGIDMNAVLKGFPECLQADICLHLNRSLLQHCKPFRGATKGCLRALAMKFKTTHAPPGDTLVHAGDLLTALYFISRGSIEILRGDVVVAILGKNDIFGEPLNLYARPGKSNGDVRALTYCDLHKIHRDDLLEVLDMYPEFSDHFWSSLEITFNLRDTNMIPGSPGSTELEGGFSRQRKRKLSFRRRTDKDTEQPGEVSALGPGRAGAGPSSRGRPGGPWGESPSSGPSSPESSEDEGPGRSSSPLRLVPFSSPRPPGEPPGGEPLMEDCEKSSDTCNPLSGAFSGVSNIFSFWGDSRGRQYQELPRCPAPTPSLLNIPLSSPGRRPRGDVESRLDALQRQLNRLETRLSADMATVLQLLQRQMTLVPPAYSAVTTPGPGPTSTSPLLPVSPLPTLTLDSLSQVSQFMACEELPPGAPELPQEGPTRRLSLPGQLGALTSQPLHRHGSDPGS

CLint scaled [1]: 8.6 mL/min/kg | remaining at 1 h [2]: 79.2% | inhibition at 20 min, 10 µM [3]: 17.5% | inhibition at 20 min, 10 µM [4]: 2.9% | inhibition at 20 min, 10 µM [5]: 56.8% | Cmax [7]: 46.5 ng/mL | AUC(0-t) [8]: 329 ng·h/mL | bioavailability [9]: 7.49% | AUC(0-inf) [10]: 1450 ng·h/mL | inhibition [13]: Active | inhibition [14]: Dose-Dependent Effect | Activity [15]: Active | IC50 [24]: 0.05 µM | IC50 [25]: 2.04 µM | IC50 [26]: 3.8 µM | IC50 [27]: 3.4 µM | IC50 at 72 h [28]: 3.1 µM
Structure (SMILES): Cc1ccc(-c2cc3c(cc2-c2ccc(C#N)cc2)c(C(=O)N2CCC(N)CC2)cn3S(=O)(=O)c2ccc(F)cc2)cc1
IC50 [6]: 5.11 µM | inhibition [11]: Active | Activity [12]: Active | Activity [16]: 52.5% | Activity [17]: Dose-Dependent Effect | Activity [18]: Dose-Dependent Effect | Activity [19]: Active | Activity [20]: Active | Activity [21]: Active | Activity [22]: Active | Activity [23]: Active
